As a reminder, the IC50 is the concentration that inhibits the measured activity by half.

18 molecules from patent publication US12152038B2, “Vasopressin receptor antagonists and products and methods related thereto” (Neumora Therapeutics, Inc., priority 2017, dated 2024) can be followed below.

Assay [1] deals with T1, human Arginine Vasopressin Receptor V2 (AVPR2) (Homo sapiens, UniProt P30518).
T1 construct: host or cells: 1321N1 (cAMPZen V2 assay ready frozen cells)
The experiment in a line: Vasopressin V2 receptor antagonist assay (TR-FRET cAMP, 1321N1 cells). Type of assay: cell-based. How it is done: The purpose of the assay was to determine the inhibitory effect of synthesized compounds on the Vasopressin receptor 2. The assay was performed in commercially available 1321N1 cells expressing the human Arginine Vasopressin Receptor V2 (AVPR2) (Perkin Elmer #ES-363-CF). Arginine Vasopressin (AVP) evokes an increase in intracellular cAMP in these cells which is measured in a TR-FRET assay using a Europium cAMP tracer and ULight labelled antibody reagents contained in a LANCE Ultra cAMP kit (Perkin Elmer #TRF0263). Increases in cAMP in the assay result in a reduction in TR-FRET as the cAMP produced by the stimulated cells competes with the Eu-cAMP tracer for binding sites on the ULight labelled antibody. Test compounds were assessed for their ability to affect the magnitude of the response to AVP, with antagonists showing a concentration-dependent decrease in the AVP-mediated reduction in TR-FRET signal.
cAMPZen V2 assay ready cells were thawed at 37° C. and resuspended directly from frozen in 9 ml growth medium consisting of DMEM supplemented with 10% v/v fetal bovine serum, 1× non-essential amino acids, and 1 mM sodium pyruvate. Cells were spun at 1000 rpm for 3 minutes and the supernatant was carefully removed and discarded. The pellet was resuspended in 5 ml stimulation buffer and the cell density determined using the Vi-Cell automated cell counter. The cell suspension was diluted to a 0.2×10^6/ml suspension ready for plating. To all wells of a white 384-well Optiplate (Perkin Elmer #6007299) 5 μL of cells in stimulation buffer were dispensed (1,000 cells per well). Stimulation buffer consisted of HBSS (+Ca/+Mg) supplemented with 5 mM HEPES, 0.1% BSA stabiliser and 0.5 mM IBMX.
At the start of each assay day the potency of AVP was assessed and an EC80 concentration determined for subsequent compound profiling. Assays were performed by first an addition of 2.5 μl of control or test compound at 4× final concentration in stimulation buffer followed by 2.5 μl of AVP at 4× final concentration in stimulation buffer. After a 1 hour reaction, detection reagents were added by first an addition of 5 μl EU-cAMP tracer, followed by 5 μl ULight-anti-cAMP both diluted as per the manufacturer's instructions. After a one hour incubation, plates were ready to be read (signals then remained stable for up to 24 hours). Changes in time resolved fluorescence were monitored with excitation via a laser (337 nm) measuring both 615 nm and 665 nm emission wavelengths. […] For compound profiling, test compounds were dispensed by the Labcyte Echo (10-point curve, 1:3 dilutions) in a target 0.1 μl volume then diluted 750-fold in stimulation buffer containing 3% DMSO prior to addition to the cells. At the end of the incubation period, 2.5 μl of AVP in stimulation buffer was added at the previously determined EC80 concentration.
In-plate controls for the assay included a Tolvaptan concentration-response curve as the reference V2 antagonist and an AVP concentration-response curve to confirm the reproducibility of the EC80 used for the compound challenge.

Assay [2] deals with T2, human Oxytocin Receptor (hOTR) (Homo sapiens, UniProt P30559).
T2 construct: host or cells: CHEM-1 (ready-to-assay frozen cells)
T2 sequence (P30559 1-389): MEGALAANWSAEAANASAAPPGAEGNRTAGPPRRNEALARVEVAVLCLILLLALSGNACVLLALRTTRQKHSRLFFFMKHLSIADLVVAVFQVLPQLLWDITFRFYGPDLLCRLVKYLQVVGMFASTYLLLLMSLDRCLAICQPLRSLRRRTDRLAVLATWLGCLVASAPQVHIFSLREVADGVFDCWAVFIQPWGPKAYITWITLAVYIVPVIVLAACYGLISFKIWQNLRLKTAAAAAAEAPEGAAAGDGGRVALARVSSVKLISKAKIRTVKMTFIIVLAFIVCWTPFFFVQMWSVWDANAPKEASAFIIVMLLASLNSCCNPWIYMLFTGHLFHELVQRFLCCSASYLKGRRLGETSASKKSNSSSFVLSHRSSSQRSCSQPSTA
As to the kind of experiment: Oxytocin receptor (OTR) antagonist assay (FLIPR calcium, CHEM-1-hOTR cells). Type of assay: cell-based. An outline of the steps:
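CHEM-1 cells expressing human OTR were loaded with Calcium-6 dye in HBSS/20 mM HEPES and preincubated with compound (10-point, 1:3 series) for 15 min at 37° C. Cells were then challenged with oxytocin at its daily-determined EC80. Calcium fluorescence was read on FLIPR for 3 min after each addition.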

Each structure is given as a SMILES string. A value given as a limit tells only on which side of the number the result lay.

T1 sequence (P30518 whole entry): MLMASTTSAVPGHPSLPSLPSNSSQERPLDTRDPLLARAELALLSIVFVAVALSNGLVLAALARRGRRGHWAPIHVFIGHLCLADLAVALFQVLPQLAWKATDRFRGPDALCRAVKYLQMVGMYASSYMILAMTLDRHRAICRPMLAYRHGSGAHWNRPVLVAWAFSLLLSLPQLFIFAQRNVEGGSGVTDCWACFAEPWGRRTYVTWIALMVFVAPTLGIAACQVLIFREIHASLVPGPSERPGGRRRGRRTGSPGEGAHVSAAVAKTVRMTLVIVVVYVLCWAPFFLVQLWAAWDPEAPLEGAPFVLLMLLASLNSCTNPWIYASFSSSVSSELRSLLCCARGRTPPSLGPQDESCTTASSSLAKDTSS

In the case of `COc1ccnc(N2CC3(CN(C(=O)N4c5ccc(Cl)cc5OCC4C)C3)C2)n1` (single isomer, unassigned) [20-9-B], the values for the IC50 in assay [1] and in assay [2] were 0.1 to 0.5 µM and 0.5 to 1 µM, respectively.
The matching figures for `Cc1cnc(N2CC3(CN(C(=O)N4c5ccc(Cl)cc5OCC4C)C3)C2)cn1` (single isomer, unassigned) [20-5-B]: less than 0.1 µM and 0.1 to 0.5 µM.
The matching figures for `O=C(N1CC2(C1)CN(c1ccccn1)C2)N1CCOCc2cc(Cl)ccc21` [8-12]: not below 1 µM and 0.5 to 1 µM.
The matching figures for `CC1COc2cc(F)c(F)cc2N1C(=O)N1CC2(C1)CN(c1ncccn1)C2` (single isomer, unassigned) [19-1-B]: not below 1 µM and not below 1 µM.
In the case of `COc1ccnc(N2CC3(CN(C(=O)N4c5ccc(Cl)cc5OCC4C)C3)C2)n1` (stereo not drawn) [20-9], the IC50 in assay [1] and in assay [2] was 0.1 to 0.5 µM each time.
Regarding `CC1COc2cc(F)c(F)cc2N1C(=O)N1CC2(C1)CN(c1ccc(F)cn1)C2` (stereo not drawn) [19-5], the half-inhibitory concentration (IC50) in assay [1] is less than 0.1 µM; in assay [2], 0.1 to 0.5 µM.
With `CCC1COc2cc(Cl)ccc2N1C(=O)N1CC2(C1)CN(c1ccccn1)C2` (stereo not drawn) [11-1, (7-chloro-3-ethyl-2,3-dihydro-4H-benzo[b][1,4]oxazin-4-yl)(6-(pyridin-2-yl)-2,6-diazaspiro[3.3]heptan-2-yl)methanone], the IC50 in assay [1] and in assay [2] was less than 0.1 µM throughout.
For the molecule `CC1COc2cc(Cl)ccc2N1C(=O)N1CC2(C1)CN(c1ncccn1)C2` (single isomer, unassigned) [1-83-B, (7-chloro-3-methyl-2,3-dihydro-4H-benzo[b][1,4]oxazin-4-yl)(6-(pyrimidin-2-yl)-2,6-diazaspiro[3.3]heptan-2-yl)methanone], the figures for the IC50 in assay [1] and in assay [2] were not below 1 µM and 0.1 to 0.5 µM, respectively.
For `O=C(N1CC2(C1)CN(c1cccc(F)n1)C2)N1CCc2cc(Cl)ccc21` [1-78], in that order: not below 1 µM and not below 1 µM.
The matching figures for `CC1COc2cc(F)ccc2N1C(=O)N1CC2(C1)CN(c1noc3ccccc13)C2` (single isomer, unassigned) [4-3-B]: 0.5 to 1 µM and not below 1 µM.
For `Cc1nc(N2CC3(CN(C(=O)N4c5ccc(Cl)cc5OCC4C)C3)C2)ncc1F` (single isomer, unassigned) [20-7-B], in that order: less than 0.1 µM and 0.1 to 0.5 µM.
For `O=C(N1CC2(C1)CN(c1ccc(F)cn1)C2)N1CCC(O)c2cc(Cl)ccc21` (single isomer, unassigned) [13-1-A], the IC50 in assay [1] and in assay [2] was not below 1 µM in each case.
As for `CC1COc2cc(Cl)c(F)cc2N1C(=O)N1CC2(C1)CN(c1ncccn1)C2` (single isomer, unassigned) [19-2-B], the IC50 in assay [1] lay within 0.1 to 0.5 µM; in assay [2], 0.5 to 1 µM.
For `CC1COc2cc(Cl)c(F)cc2N1C(=O)N1CC2(C1)CN(c1cccnc1)C2` (stereo not drawn) [19-6], in that order: not below 1 µM and 0.1 to 0.5 µM.
For `COc1ccnc(N2CC3(CN(C(=O)N4c5ccc(Cl)cc5OCC4C)C3)C2)c1` (stereo not drawn) [20-8], in that order: 0.1 to 0.5 µM and 0.1 to 0.5 µM.
The matching figures for `CC1COc2cc(Cl)ccc2N1C(=O)N1CC2(C1)CN(c1cccnn1)C2` (single isomer, unassigned) [9-1-B]: not below 1 µM and 0.1 to 0.5 µM.
For the molecule `CC1COc2cc(Cl)ccc2N1C(=O)N1CC2(C1)CN(c1cccnn1)C2` (stereo not drawn) [9-1, (7-chloro-3-methyl-2,3-dihydro-4H-benzo[b][1,4]oxazin-4-yl)(6-(pyridazin-3-yl)-2,6-diazaspiro[3.3]heptan-2-yl)methanone], the values for the IC50 in assay [1] and in assay [2] were not below 1 µM and 0.1 to 0.5 µM, respectively.
The matching figures for `CC1CN(C(=O)N2CC3(C2)CN(c2ccc(F)cn2)C3)c2ccc(Cl)cc2O1` (stereo not drawn) [9-3]: not below 1 µM and 0.5 to 1 µM.
